# Values quoted from earlier work, collected in patent US20250257354A1, “METHODS AND COMPOSITIONS RELATED TO TRNA THERAPEUTICS FOR TREATING VISION LOSS” (UNIVERSITY OF IOWA RESEARCH FOUNDATION, priority 2022, published 2025).
# Conditions: ACT DMD Phase 3 NCT01826487; ACT CF NCT02139306
compound,measurement,value
O=C(O)c1cccc(-c2noc(-c3ccccc3F)n2)c1 [Ataluren],efficacy in patient populations,unexpectedly low efficacy
